Columns and labels:
Experiment in all cases: biochemical
SARS-CoV nsp14 = SARS-CoV nsp14 (Severe acute respiratory syndrome coronavirus, UniProt P0C6X7); conditions: for IC50: SARS-Cov nap14 IC50; for inhibition at 50 µM: read-out: % of inhibition at 50 μM, SARs-Cov nsp 14
[1] = molecular target: vaccinia virus capping enzyme (D1-D12) (Vaccinia virus, UniProt P04298); conditions: read-out: % of inhibition at 50 μM, Vaccinia virus D1-D12
[2] = molecular target: human RNA N7-MTase (hRNMT) (Homo sapiens, UniProt O43148); assay type: biochemical; conditions: for inhibition at 50 µM: read-out: % of inhibition at 50 μM, hRNMT
Sequence of human RNA N7-MTase (hRNMT) (O43148 whole entry): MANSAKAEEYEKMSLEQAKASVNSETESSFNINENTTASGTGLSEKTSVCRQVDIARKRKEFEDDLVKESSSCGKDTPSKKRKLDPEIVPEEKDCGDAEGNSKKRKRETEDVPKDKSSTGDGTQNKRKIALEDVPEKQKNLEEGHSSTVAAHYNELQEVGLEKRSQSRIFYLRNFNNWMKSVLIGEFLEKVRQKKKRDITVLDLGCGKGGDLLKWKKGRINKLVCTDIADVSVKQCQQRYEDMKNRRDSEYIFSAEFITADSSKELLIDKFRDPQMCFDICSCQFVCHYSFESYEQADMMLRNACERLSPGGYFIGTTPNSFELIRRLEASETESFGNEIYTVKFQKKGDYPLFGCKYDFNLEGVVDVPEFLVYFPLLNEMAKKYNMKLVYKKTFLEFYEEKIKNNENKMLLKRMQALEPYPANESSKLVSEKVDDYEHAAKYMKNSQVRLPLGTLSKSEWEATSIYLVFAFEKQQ

SMILES: CCOC1C(C#N)=C(N)OC2=C1c1sc(=S)n(-c3ccccc3)c1CC2 (stereo not shown) [Compound 20a, 7-Amino-9-ethoxy-3-phenyl-2-thioxo-3,4,5,9-tetrahydro-2H-chromeno[6,5-d]thiazole-8-carbonitrile]
- IC50 (SARS-CoV nsp14): 42.4 ± 5.63 µM
- inhibition at 50 µM (SARS-CoV nsp14): 49.2 ± 6.73%
- inhibition at 50 µM [1]: 53.5 ± 8.25%
- IC50 [2]: 58.3 ± 4.95 µM
- inhibition at 50 µM [2]: 70.4 ± 5.9%

SMILES: COc1ccc(C2C(C#N)=C(N)OC3=C2CC(=O)CC3)cc1 (stereo not shown) [Compound 4c, 2-Amino-4-(4-methoxyphenyl)-6-oxo-5,6,7,8-tetrahydro-4H-chromene-3-carbonitrile]
- IC50 (SARS-CoV nsp14): 16.4 ± 2.7 µM
- inhibition at 50 µM (SARS-CoV nsp14): 34.6 ± 4.62%
- inhibition at 50 µM [1]: 49.4 ± 6.92%
- IC50 [2]: 32.6 ± 1.7 µM
- inhibition at 50 µM [2]: 51.7 ± 4.62%

SMILES: CCOC(=O)c1c(N)sc2c1CCC1=C2C(c2ccc(OC)cc2)C(C#N)=C(N)O1 (stereo not shown) [Compound 6f, Ethyl 2,7-diamino-8-cyano-9-(4-methoxyphenyl)-5,9-dihydro-4H-thieno[2,3-f]chromene-3-carboxylate]
- IC50 (SARS-CoV nsp14): 36.4 ± 4.51 µM
- inhibition at 50 µM (SARS-CoV nsp14): 58.3 ± 3.65%
- inhibition at 50 µM [1]: 44.8 ± 5.08%
- IC50 [2]: 1.26 ± 0.58 µM
- inhibition at 50 µM [2]: 62.5 ± 5.84%

SMILES: N#Cc1c(N)sc2c1CCc1c-2sc(=S)n1-c1ccccc1 [Compound 21a, 7-Amino-3-phenyl-2-thioxo-2,3,4,5-tetrahydrothieno[2',3':3,4]benzo[1,2-d]thiazole-6-carbonitrile]
- IC50 (SARS-CoV nsp14): 18.5 ± 2.68 µM
- inhibition at 50 µM (SARS-CoV nsp14): 49.2 ± 6.73%
- inhibition at 50 µM [1]: 57.8 ± 5.82%
- IC50 [2]: 56.3 ± 4.62 µM
- inhibition at 50 µM [2]: 60.3 ± 5.37%

SMILES: COc1ccc(C2C(C#N)=C(N)OC3=C2c2sc(N)c(C#N)c2CC3)cc1 (stereo not shown) [Compound 6c, 2,7-Diamino-9-(4-methoxyphenyl)-5,9-dihydro-4H-thieno[2,3-f]chromene-3,8-dicarbonitrile]
- IC50 (SARS-CoV nsp14): 0.45 ± 0.19 µM
- inhibition at 50 µM (SARS-CoV nsp14): 88.2 ± 4.26%
- inhibition at 50 µM [1]: 92.2 ± 5.22%
- % of inhibition at 50 μM, hRNMT [2]: high inhibitions
- IC50 [2]: < 0.05 µM
- inhibition at 50 µM [2]: 92.2 ± 5.22%

SMILES: Nc1ncnc2c1ncn2[C@@H]1O[C@H](C[C@@H](N)CC[C@H](N)C(=O)O)[C@@H](O)[C@H]1O [Sinefungin, reference compound]
- inhibition at 50 µM (SARS-CoV nsp14): 98.36 ± 0.23%
- IC50 [2]: < 0.05 µM

SMILES: CCOC(=O)C1=C(N)OC2=C(c3sc(=S)n(-c4ccccc4)c3CC2)C1c1ccccc1 (stereo not shown) [Compound 23c, Ethyl 7-amino-3,9-diphenyl-2-thioxo-3,4,5,9-tetrahydro-2H-chromeno[6,5-d]thiazole-8-carboxylate]
- IC50 (SARS-CoV nsp14): 28.4 ± 3.26 µM
- inhibition at 50 µM (SARS-CoV nsp14): 64.3 ± 5.53%
- inhibition at 50 µM [1]: 70.4 ± 5.63%
- IC50 [2]: 70.3 ± 3.8 µM
- inhibition at 50 µM [2]: 59.3 ± 4.68%

SMILES: N#CC1=C(N)OC2=C(CC(=O)CC2)C1c1ccccc1Cl (stereo not shown) [Compound 4b, 2-Amino-4-(2-chlorophenyl)-6-oxo-5,6,7,8-tetrahydro-4H-chromene-3-carbonitrile]
- IC50 (SARS-CoV nsp14): 0.62 ± 0.32 µM
- inhibition at 50 µM (SARS-CoV nsp14): 87.5 ± 8.21%
- inhibition at 50 µM [1]: 98.3 ± 5.42%
- % of inhibition at 50 μM, hRNMT [2]: high inhibitions
- IC50 [2]: 0.41 ± 0.26 µM
- inhibition at 50 µM [2]: 94.6 ± 7.68%

SMILES: CCOC(=O)c1c(N)sc2c1CCc1c-2sc(=S)n1-c1ccccc1 [Compound 21b, Ethyl 7-amino-3-phenyl-2-thioxo-2,3,4,5-tetrahydrothieno[2',3':3,4]benzo[1,2-d]thiazole-6-carboxylate]
- IC50 (SARS-CoV nsp14): 1.08 ± 0.58 µM
- inhibition at 50 µM (SARS-CoV nsp14): 87.2 ± 5.36%
- inhibition at 50 µM [1]: 90.4 ± 6.53%
- % of inhibition at 50 μM, hRNMT [2]: high inhibitions
- IC50 [2]: 0.94 ± 0.36 µM
- inhibition at 50 µM [2]: 88.2 ± 5.38%

SMILES: N#CC1=C(N)OC2=C(C=C(c3c(N)n[nH]c3N)CC2)C1c1ccccc1Cl (stereo not shown) [Compound 9a, 2-Amino-4-(2-chlorophenyl)-6-(3,5-diamino-1H-pyrazol-4-yl)-7,8-dihydro-4H-chromene-3-carbonitrile]
- IC50 (SARS-CoV nsp14): 0.42 ± 0.19 µM
- inhibition at 50 µM (SARS-CoV nsp14): 96.3 ± 2.4%
- inhibition at 50 µM [1]: 95.5 ± 3.23%
- % of inhibition at 50 μM, hRNMT [2]: high inhibitions
- IC50 [2]: < 0.05 µM
- inhibition at 50 µM [2]: 93.6 ± 3.71%

SMILES: N#CC1=C(N)OC2=C(CC(=O)CC2)C1c1ccccc1 (stereo not shown) [Compound 4a, 2-Amino-6-oxo-4-phenyl-5,6,7,8-tetrahydro-4H-chromene-3-carbonitrile]
- IC50 (SARS-CoV nsp14): 0.63 ± 0.32 µM
- inhibition at 50 µM (SARS-CoV nsp14): 93.4 ± 3.68%
- inhibition at 50 µM [1]: 89.3 ± 7.89%
- % of inhibition at 50 μM, hRNMT [2]: high inhibitions
- IC50 [2]: < 0.05 µM
- inhibition at 50 µM [2]: 92.3 ± 5.41%

SMILES: CC1=CSC(=C2C(=O)CCC3=C2C(c2ccccc2Cl)C(C#N)=C(N)O3)N1c1ccccc1 (stereo not shown) [Compound 15, 2-Amino-4-(2-chlorophenyl)-5-(4-methyl-3-phenylthiazol-2(3H)-ylidene)-6-oxo-5,6,7,8-tetrahydro-4H-chromene-3-carbonitrile]
- IC50 (SARS-CoV nsp14): 22.6 ± 3.58 µM
- inhibition at 50 µM (SARS-CoV nsp14): 89.2 ± 5.83%
- inhibition at 50 µM [1]: 90.4 ± 5.68%
- % of inhibition at 50 μM, hRNMT [2]: high inhibitions
- IC50 [2]: 4.91 ± 2.34 µM
- inhibition at 50 µM [2]: 87.3 ± 6.42%

SMILES: N#CC1=C(N)OC2=C(C=C(c3c(N)nn(-c4ccccc4)c3N)CC2)C1c1ccccc1Cl (stereo not shown) [Compound 9b, 2-Amino-4-(2-chlorophenyl)-6-(3,5-diamino-1-phenyl-1H-pyrazol-4-yl)-7,8-dihydro-4H-chromene-3-carbonitrile]
- IC50 (SARS-CoV nsp14): 0.36 ± 0.2 µM
- inhibition at 50 µM (SARS-CoV nsp14): 93.3 ± 4.17%
- inhibition at 50 µM [1]: 96.1 ± 2.48%
- % of inhibition at 50 μM, hRNMT [2]: high inhibitions
- IC50 [2]: 1.91 ± 1.32 µM
- inhibition at 50 µM [2]: 90.3 ± 5.2%

SMILES: CCOC(=O)c1c(N)sc2c1CCC1=C2C(c2ccccc2)C(C#N)=C(N)O1 (stereo not shown) [Compound 6d, Ethyl 2,7-diamino-8-cyano-9-phenyl-5,9-dihydro-4H-thieno[2,3-f]chromene-3-carboxylate]
- IC50 (SARS-CoV nsp14): 26.7 ± 5.73 µM
- inhibition at 50 µM (SARS-CoV nsp14): 42.6 ± 4.65%
- inhibition at 50 µM [1]: 36.3 ± 5.22%
- IC50 [2]: 10.5 ± 2.69 µM
- inhibition at 50 µM [2]: 40.3 ± 6.27%

SMILES: N#CC1=C(N)OC2=C(c3sc(=S)n(-c4ccccc4)c3CC2)C1c1ccc(Cl)cc1 (stereo not shown) [Compound 23b, 7-Amino-9-(4-chlorophenyl)-3-phenyl-2-thioxo-3,4,5,9-tetrahydro-2H-chromeno[6,5-d]thiazole-8-carbonitrile]
- IC50 (SARS-CoV nsp14): 0.35 ± 0.15 µM
- inhibition at 50 µM (SARS-CoV nsp14): 94.5 ± 6.83%
- inhibition at 50 µM [1]: 96.3 ± 8.92%
- % of inhibition at 50 μM, hRNMT [2]: high inhibitions
- IC50 [2]: < 0.05 µM
- inhibition at 50 µM [2]: 96.4 ± 7.24%

SMILES: CCOC(=O)C1=C(N)OC2=C(c3sc(=S)n(-c4ccccc4)c3CC2)C1c1ccc(Cl)cc1 (stereo not shown) [Compound 23d, Ethyl 7-amino-9-(4-chlorophenyl)-3-phenyl-2-thioxo-3,4,5,9-tetrahydro-2H-chromeno[6,5-d]thiazole-8-carboxylate]
- IC50 (SARS-CoV nsp14): 0.49 ± 0.13 µM
- inhibition at 50 µM (SARS-CoV nsp14): 57.7 ± 4.26%
- inhibition at 50 µM [1]: 72.3 ± 5.58%
- IC50 [2]: < 0.05 µM
- inhibition at 50 µM [2]: 68.6 ± 6.42%

SMILES: O=C1CCc2c(sc(=S)n2-c2ccccc2)C1 [Compound 18, 3-Phenyl-2-thioxo-2,3,4,5-tetrahydrobenzo[d]thiazol-6(7H)-one]
- IC50 (SARS-CoV nsp14): 53.3 ± 5.62 µM
- inhibition at 50 µM (SARS-CoV nsp14): 56.4 ± 5.73%
- inhibition at 50 µM [1]: 63.7 ± 7.08%
- IC50 [2]: 26.5 ± 6.28 µM
- inhibition at 50 µM [2]: 65.5 ± 4.8%

SMILES: N#CC1=C(N)OC2=C(c3sc(N)c(C#N)c3CC2)C1c1ccccc1 (stereo not shown) [Compound 6a, 2,7-Diamino-9-phenyl-5,9-dihydro-4H-thieno[2,3-f]chromene-3,8-dicarbonitrile]
- IC50 (SARS-CoV nsp14): 26.4 ± 3.57 µM
- inhibition at 50 µM (SARS-CoV nsp14): 68.2 ± 4.53%
- inhibition at 50 µM [1]: 79.3 ± 5.37%
- % of inhibition at 50 μM, hRNMT [2]: high inhibitions
- IC50 [2]: 36.5 ± 6.27 µM
- inhibition at 50 µM [2]: 80.3 ± 3.74%

SMILES: N#CC1=C(N)OC2=C(c3sc(=S)n(-c4ccccc4)c3CC2)C1c1ccccc1 (stereo not shown) [Compound 23a, 7-Amino-3,9-diphenyl-2-thioxo-3,4,5,9-tetrahydro-2H-chromeno[6,5-d]thiazole-8-carbonitrile]
- IC50 (SARS-CoV nsp14): 32.4 ± 4.58 µM
- inhibition at 50 µM (SARS-CoV nsp14): 56.6 ± 6.72%
- inhibition at 50 µM [1]: 45.8 ± 6.38%
- IC50 [2]: 24.7 ± 5.47 µM
- inhibition at 50 µM [2]: 42.7 ± 5.88%

SMILES: CCOC(=O)CSC(Nc1ccccc1)=C1C(=O)CCC2=C1C(c1ccccc1Cl)C(C#N)=C(N)O2 (stereo not shown) [Compound 16, Ethyl 2-(((2-amino-4-(2-chlorophenyl)-3-cyano-6-oxo-7,8-dihydro-4H-chromen-5(6H)-ylidene)(phenylamino)methyl)thio)acetate]
- IC50 (SARS-CoV nsp14): 0.53 ± 0.18 µM
- inhibition at 50 µM (SARS-CoV nsp14): 89.2 ± 6.58%
- inhibition at 50 µM [1]: 84.3 ± 6.29%
- % of inhibition at 50 μM, hRNMT [2]: high inhibitions
- IC50 [2]: 1.29 ± 0.98 µM
- inhibition at 50 µM [2]: 90.3 ± 4.66%

SMILES: CCOC1C(C#N)=C(O)OC2=C1c1sc(=S)n(-c3ccccc3)c1CC2 (stereo not shown) [Compound 20b, 9-Ethoxy-7-hydroxy-3-phenyl-2-thioxo-3,4,5,9-tetrahydro–2H-chromeno[6,5-d]thiazole-8-carbonitrile]
- IC50 (SARS-CoV nsp14): 32.6 ± 3.8 µM
- inhibition at 50 µM (SARS-CoV nsp14): 36.1 ± 6.83%
- inhibition at 50 µM [1]: 41.4 ± 4.93%
- IC50 [2]: 18.8 ± 5.36 µM
- inhibition at 50 µM [2]: 39.5 ± 6.83%

SMILES: CCOC(=O)c1c(N)sc2c1CCC1=C2C(c2ccccc2Cl)C(C#N)=C(N)O1 (stereo not shown) [Compound 6e, Ethyl 2,7-diamino-9-(2-chlorophenyl)-8-cyano-5,9-dihydro-4H-thieno[2,3-f]chromene-3-carboxylate]
- IC50 (SARS-CoV nsp14): 0.39 ± 0.25 µM
- inhibition at 50 µM (SARS-CoV nsp14): 89.2 ± 8.27%
- inhibition at 50 µM [1]: 92.5 ± 6.9%
- % of inhibition at 50 μM, hRNMT [2]: high inhibitions
- IC50 [2]: 0.29 ± 0.08 µM
- inhibition at 50 µM [2]: 80.2 ± 6.28%

— publication PMC8370666 (Journal of the Iranian Chemical Society, 2021)
